Activity calls are given as the source filed them. How the calls were made is not given here.
Test system: CCRIS mutagenicity, Ames/micronucleus/aberration tests
Experiment: CCRIS mutagenicity studies

SMILES: O=[N+]([O-])c1ccc2c(c1)Cc1ccccc1-2
- mutagenic call (End Point: IN VITRO CHROMOSOMAL ABERRATIONS, Test System: CHINESE HAMSTER LUNG (CHL) CELLS, Metabolic Activation: NONE): inactive; negative
- mutagenic call (End Point: IN VITRO CHROMOSOMAL ABERRATIONS, Test System: CHINESE HAMSTER LUNG (CHL) CELLS, Metabolic Activation: RAT, LIVER, S-9, KC-400): active; positive
- mutagenic call (End Point: IN VITRO MICRONUCLEUS, Test System: CHL/IU CELLS, Metabolic Activation: NONE): active; positive
- mutagenic call (Test System: AMES SALMONELLA TYPHIMURIUM, Strain/Indicator: TA98 (1,8-DNP6), Metabolic Activation: NONE, Method: PREINCUBATION): active; positive
- mutagenic call (Test System: AMES SALMONELLA TYPHIMURIUM, Strain/Indicator: TA98(1,8-DNP6), Metabolic Activation: NONE, Method: STANDARD PLATE): active; positive
- mutagenic call (Test System: AMES SALMONELLA TYPHIMURIUM, Strain/Indicator: TA98 (NR), Metabolic Activation: NONE, Method: PREINCUBATION): active; positive
- mutagenic call (Test System: AMES SALMONELLA TYPHIMURIUM, Strain/Indicator: TA98(NR), Metabolic Activation: NONE, Method: STANDARD PLATE): active; positive
- mutagenic call (Test System: AMES SALMONELLA TYPHIMURIUM, Strain/Indicator: TA98 (NR), Metabolic Activation: RAT LIVER S-9 (10%), Method: PREINCUBATION): active; positive
- mutagenic call (Test System: AMES SALMONELLA TYPHIMURIUM, Strain/Indicator: TA98 (NR), Metabolic Activation: RAT LIVER S-9, 3-METHYLCHOLANTHRENE (10%), Method: PREINCUBATION): active; positive
- mutagenic call (Test System: AMES SALMONELLA TYPHIMURIUM, Strain/Indicator: TA98 (NR), Metabolic Activation: RAT LIVER S-9, BETA-NAPHTHAFLAVONE (10%), Method: PREINCUBATION): active; positive
- mutagenic call (Test System: AMES SALMONELLA TYPHIMURIUM, Strain/Indicator: TA98(NR), Metabolic Activation: RAT LIVER S-9, PHENOBARBITAL (10%), Method: PREINCUBATION): active; positive
- mutagenic call (Test System: AMES SALMONELLA TYPHIMURIUM, Strain/Indicator: TA98 (NR), Metabolic Activation: RAT LIVER S-9 PCB, 10%, Method: PREINCUBATION): active; positive
- mutagenic call (Test System: AMES SALMONELLA TYPHIMURIUM, Strain/Indicator: TA98, Metabolic Activation: NONE, Method: SPIRAL ASSAY): active; positive
- mutagenic call (Test System: AMES SALMONELLA TYPHIMURIUM, Strain/Indicator: TA98, Metabolic Activation: RAT, LIVER, S-9, AROCLOR 1254, Method: SPIRAL ASSAY): active; positive
- mutagenic call (Test System: AMES SALMONELLA TYPHIMURIUM, Strain/Indicator: TA98, Metabolic Activation: RAT, LIVER, S-9, AROCLOR 1254, Method: STANDARD PLATE): active; positive
- mutagenic call (Test System: AMES SALMONELLA TYPHIMURIUM, Strain/Indicator: TA98, Metabolic Activation: RAT, LIVER, S-9, PCB (10%), Method: PREINCUBATION): active; positive
- mutagenic call (Test System: AMES SALMONELLA TYPHIMURIUM, Strain/Indicator: TA98, Metabolic Activation: S-9, Method: PREINCUBATION): active; positive
- mutagenic call (Test System: AMES SALMONELLA TYPHIMURIUM, Strain/Indicator: TA98, Metabolic Activation: S-9, Method: STANDARD PLATE): active; positive
- mutagenic call (Test System: AMES SALMONELLA TYPHIMURIUM, Strain/Indicator: TA100(NR), Metabolic Activation: NONE, Method: STANDARD PLATE): inactive; negative
- mutagenic call (Test System: AMES SALMONELLA TYPHIMURIUM, Strain/Indicator: TA100(TN5-1,8-DNP1012), Metabolic Activation: NONE, Method: STANDARD PLATE): inactive; negative
- mutagenic call (Test System: AMES SALMONELLA TYPHIMURIUM, Strain/Indicator: TA100, Metabolic Activation: NONE, Method: PREINCUBATION): active; positive
- mutagenic call (Test System: AMES SALMONELLA TYPHIMURIUM, Strain/Indicator: TA100, Metabolic Activation: NONE, Method: SPIRAL ASSAY): active; positive
- mutagenic call (Test System: AMES SALMONELLA TYPHIMURIUM, Strain/Indicator: TA100, Metabolic Activation: RAT, LIVER, S-9, AROCLOR 1254, Method: SPIRAL ASSAY): active; positive
- mutagenic call (Test System: AMES SALMONELLA TYPHIMURIUM, Strain/Indicator: TA100, Metabolic Activation: RAT, LIVER, S-9, AROCLOR 1254, Method: STANDARD PLATE): active; positive
- mutagenic call (Test System: AMES SALMONELLA TYPHIMURIUM, Strain/Indicator: TA100, Metabolic Activation: S-9, Method: STANDARD PLATE): active; positive
- mutagenic call (Test System: AMES SALMONELLA TYPHIMURIUM, Strain/Indicator: TA102, Metabolic Activation: NONE, Method: PREINCUBATION): active; positive
- mutagenic call (Test System: AMES SALMONELLA TYPHIMURIUM, Strain/Indicator: TA1535, Metabolic Activation: NONE, Method: PREINCUBATION): active; positive
- mutagenic call (Test System: AMES SALMONELLA TYPHIMURIUM, Strain/Indicator: TA1535, Metabolic Activation: NONE, Method: SPIRAL ASSAY): inactive; negative
- mutagenic call (Test System: AMES SALMONELLA TYPHIMURIUM, Strain/Indicator: TA1535, Metabolic Activation: NONE, Method: STANDARD PLATE): inactive; negative
- mutagenic call (Test System: AMES SALMONELLA TYPHIMURIUM, Strain/Indicator: TA1535, Metabolic Activation: RAT, LIVER, S-9, AROCLOR 1254, Method: SPIRAL ASSAY): inactive; negative
- mutagenic call (Test System: AMES SALMONELLA TYPHIMURIUM, Strain/Indicator: TA1535, Metabolic Activation: RAT, LIVER, S-9, AROCLOR 1254, Method: STANDARD PLATE): inactive; negative
- mutagenic call (Test System: AMES SALMONELLA TYPHIMURIUM, Strain/Indicator: TA1537, Metabolic Activation: NONE, Method: SPIRAL ASSAY): active; positive
- mutagenic call (Test System: AMES SALMONELLA TYPHIMURIUM, Strain/Indicator: TA1537, Metabolic Activation: NONE, Method: STANDARD PLATE): active; positive
- mutagenic call (Test System: AMES SALMONELLA TYPHIMURIUM, Strain/Indicator: TA1537, Metabolic Activation: RAT, LIVER, S-9, AROCLOR 1254, Method: SPIRAL ASSAY): active; positive
- mutagenic call (Test System: AMES SALMONELLA TYPHIMURIUM, Strain/Indicator: TA1537, Metabolic Activation: RAT, LIVER, S-9, AROCLOR 1254, Method: STANDARD PLATE): active; positive
- mutagenic call (Test System: AMES SALMONELLA TYPHIMURIUM, Strain/Indicator: TA1538, Metabolic Activation: NONE, Method: STANDARD PLATE): active; positive
- mutagenic call (Test System: AMES SALMONELLA TYPHIMURIUM, Strain/Indicator: TA1975, Metabolic Activation: NONE, Method: PREINCUBATION): active; positive
- mutagenic call (Test System: AMES SALMONELLA TYPHIMURIUM, Strain/Indicator: YG1020, Metabolic Activation: NONE, Method: PREINCUBATION): active; positive
- mutagenic call (Test System: AMES SALMONELLA TYPHIMURIUM, Strain/Indicator: YG1024, Metabolic Activation: NONE, Method: PREINCUBATION): active; positive
- mutagenic call (Test System: AMES SALMONELLA TYPHIMURIUM, Strain/Indicator: YG1025, Metabolic Activation: NONE, Method: PREINCUBATION): active; positive
- mutagenic call (Test System: AMES SALMONELLA TYPHIMURIUM, Strain/Indicator: YG1029, Metabolic Activation: NONE, Method: PREINCUBATION): active; positive
- mutagenic call (Test System: AMES SALMONELLA TYPHIMURIUM, Strain/Indicator: YG3001, Metabolic Activation: NONE, Method: PREINCUBATION): active; positive
- mutagenic call (Test System: AMES SALMONELLA TYPHIMURIUM, Strain/Indicator: YG3002, Metabolic Activation: NONE, Method: PREINCUBATION): active; positive
- mutagenic call (Test System: AMES SALMONELLA TYPHIMURIUM, Strain/Indicator: YG3003, Metabolic Activation: NONE, Method: PREINCUBATION): active; positive
- mutagenic call (Test System: AMES SALMONELLA TYPHIMURIUM, Strain/Indicator: YG7112, Metabolic Activation: NONE, Method: PREINCUBATION): active; positive
- mutagenic call (Test System: AMES SALMONELLA TYPHIMURIUM, Strain/Indicator: YG7113, Metabolic Activation: NONE, Method: PREINCUBATION): active; positive
- mutagenic call (Test System: CHINESE HAMSTER OVARY, Strain/Indicator: CHO-K1-BH4 (HGPRT), Metabolic Activation: RAT, LIVER, S-9, AROCLOR, Method: SUSPENSION/PLATE): active; positive
- mutagenic call (Test System: E. COLI, Strain/Indicator: WP2 UVRA, Metabolic Activation: HAMSTER, LIVER, S-9, AROCLOR 1254, Method: STANDARD PLATE): inactive; negative
- mutagenic call (Test System: E. COLI, Strain/Indicator: WP2 UVRA, Metabolic Activation: HAMSTER, LIVER, S-9, Method: STANDARD PLATE): inactive; negative
- mutagenic call (Test System: E. COLI, Strain/Indicator: WP2 UVRA, Metabolic Activation: MOUSE, LIVER, S-9, AROCLOR 1254, Method: STANDARD PLATE): inactive; negative
- mutagenic call (Test System: E. COLI, Strain/Indicator: WP2 UVRA, Metabolic Activation: MOUSE, LIVER, S-9, Method: STANDARD PLATE): inactive; negative
- mutagenic call (Test System: E. COLI, Strain/Indicator: WP2 UVRA, Metabolic Activation: NONE, Method: STANDARD PLATE): inactive; negative
- mutagenic call (Test System: E. COLI, Strain/Indicator: WP2 UVRA, Metabolic Activation: RAT, LIVER, S-9, AROCLOR 1254, Method: STANDARD PLATE): inactive; negative
- mutagenic call (Test System: E. COLI, Strain/Indicator: WP2 UVRA, Metabolic Activation: RAT, LIVER, S-9, Method: STANDARD PLATE): inactive; negative
- mutagenic call (Test System: MOUSE LYMPHOMA, Strain/Indicator: L5178Y (TK+/TK-), Metabolic Activation: NONE, Method: SUSPENSION/PLATE): active; positive
- mutagenic call (Test System: UDS RAT HEPATOCYTES, Strain/Indicator: THY INCORP, Metabolic Activation: NONE, Method: AUTORADIOGRAPHY (SERUM-FREE MEDIA)): active; positive

From PubChem BioAssay AID1259407 (Chemical Carcinogenesis Research Information System (CCRIS), 2018)
